Assay results: paper PMC3985417 (Journal of Medicinal Chemistry, 2014)

Experiment: in vitro
Conditions: human, HEK293 cell homogenate

Question: For `CN(C)CCCN1c2ccccc2CCc2ccccc21` [Imipramine], which fraction unbound at 4 h is on record?
Answer: The fraction unbound at 4 h was 0.59 ± 0.013.
